Experimental data as given in publication PMC6263113 (Journal of Enzyme Inhibition and Medicinal Chemistry, 2018).
Entries after “also recorded” stand apart in the source; their conditions may differ.

Key:
[1] = molecular target: T1, AChE (Rattus norvegicus, UniProt P37136); test: In vitro AChE activity in rat hippocampus homogenate; format: biochemical
T1 sequence (P37136 32-614): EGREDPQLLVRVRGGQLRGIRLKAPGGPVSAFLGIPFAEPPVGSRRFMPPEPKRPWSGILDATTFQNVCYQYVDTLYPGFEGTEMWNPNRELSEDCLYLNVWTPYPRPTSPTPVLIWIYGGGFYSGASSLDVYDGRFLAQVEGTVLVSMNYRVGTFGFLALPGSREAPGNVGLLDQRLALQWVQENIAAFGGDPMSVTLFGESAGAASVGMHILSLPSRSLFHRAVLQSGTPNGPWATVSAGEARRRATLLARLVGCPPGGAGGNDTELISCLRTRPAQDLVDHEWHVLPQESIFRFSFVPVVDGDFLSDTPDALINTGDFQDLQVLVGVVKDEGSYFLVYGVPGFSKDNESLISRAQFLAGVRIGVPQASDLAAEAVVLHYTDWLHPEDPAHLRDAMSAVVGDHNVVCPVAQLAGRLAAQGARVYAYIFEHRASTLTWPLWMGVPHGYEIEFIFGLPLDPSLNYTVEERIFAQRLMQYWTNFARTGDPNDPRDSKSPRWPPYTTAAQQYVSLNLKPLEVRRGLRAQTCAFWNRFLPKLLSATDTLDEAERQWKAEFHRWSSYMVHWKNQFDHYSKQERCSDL

[2] = test system: MRC-5 (human fibroblast); test: Cytotoxicity in fibroblast culture by SRB test; format: cell-based; conditions: 24 h
[3] = molecular target: T1, AChE; test: In vitro AChE activity in rat cerebral cortex homogenate; format: biochemical; conditions: read-out: inhibition of AChE activity
[4] = read-out: inhibition of AChE activity

Compound: O=C1c2ccccc2SC(c2ccc([N+](=O)[O-])cc2)N1CCN1CCOCC1 (stereo not drawn) [5Ad, 3-(2-morpholinoethyl)-2-(4-nitrophenyl)-2,3-dihydro-4H-benzo[e][1,3]thiazin-4-one]
- IC50 [1]: 70.6 µM
- inhibition at 100 µM [1, 4]: 46.4%

Compound: CCCCC1Sc2ccccc2C(=O)N1CCCN1CCCCC1 (stereo not drawn) [5Ba, 2-butyl-3-(3-(piperidin-1-yl)propyl)-2,3-dihydro-4H-benzo[e][1,3]thiazin-4-one]
- cytotoxicity (cell proliferation vs DMSO control) ([2]; 100 µM): noncytotoxic
- IC50 [1]: 73.3 µM
- inhibition at 100 µM [1, 4]: 46.2%
- inhibition at 10 µM [3]: 27.1%

Compound: O=C1c2ccccc2SC(c2ccccc2)N1CCCN1CCCCC1 (stereo not drawn) [5Bb, 2-phenyl-3-(3-(piperidin-1-yl)propyl)-2,3-dihydro-4H-benzo[e][1,3]thiazin-4-one]
- IC50 [1]: 39.8 µM
- inhibition at 50 µM [1, 4]: 50%
- inhibition at 10 µM [3]: 47.2%

Compound: O=C1c2ccccc2SC(c2ccc([N+](=O)[O-])cc2)N1CCCN1CCCCC1 (stereo not drawn) [5Bd, 2-(4-nitrophenyl)-3-(3-(piperidin-1-yl)propyl)-2,3-dihydro-4H-benzo[e] [1,3]thiazin-4-one]
- cytotoxicity (cell proliferation vs DMSO control) ([2]; 100 µM): no cytotoxicity; also recorded: noncytotoxic
- cytotoxicity in human fibroblast cell (overall statement) [2]: low cytotoxicity
- IC50 [1]: 39.8 µM

Compound: O=C1c2ccccc2SC(c2ccc(F)cc2)N1CCCN1CCCCC1 (stereo not drawn) [5Bf, 2-(4-fluorophenyl)-3-(3-(piperidin-1-yl)propyl)-2,3-dihydro-4H-benzo[e][1,3]thiazin-4-one]
- IC50 [1]: 61.7 µM

Compound: O=C1c2ccccc2SC(c2ccc([N+](=O)[O-])cc2)N1CCN1CCCCC1 (stereo not drawn) [5Cd, 2-(4-nitrophenyl)-3-(2-(piperidin-1-yl)ethyl)-2,3-dihydro-4H-benzo[e] [1,3]thiazin-4-one]
- cytotoxicity (cell proliferation vs DMSO control) ([2]; 50 µM (lowest concentration tested)): showed toxicity
- IC50 [1]: 119 µM
